We go through eleven compounds from patent US20240190883A1, “KRAS PROTEIN DEGRADERS, PHARMACEUTICAL COMPOSITIONS THEREOF, AND THEIR THERAPEUTIC APPLICATIONS” (BioTheryX, Inc., priority 2021, published 2024).

Molecules are shown by their SMILES.

Holding throughout (type): cell-based
The subject of test [1] is Lovo (G13D) cells. Description: Cell viability assay (CELLTITER-GLO), Lovo cells. As to conditions: Homo sapiens, 72 h, 3 days incubation, 2.5% fetal bovine serum, read-out: Inhibition of Cancerous Cells IC50 (μM) Lovo (G13D). On the procedure: (§1) H358, H23, SW48, and AsPC-1 cells were cultured in RPMI 1640 media supplemented with 10% fetal bovine serum, streptomycin, and penicillin. Lovo and SW480 cells were cultured in DMEM media supplemented with 10% fetal bovine serum, streptomycin, and penicillin. The cell lines were plated in their respective medium supplemented with 2.5% fetal bovine serum, streptomycin, and penicillin. All cell lines were plated in white walled 96-well plates at 2,000 cells/well or 384-well plates at 500 cells/well, except Lovo, which were plated at 4,000 or 1,000 cells/well, respectively. The cells were incubated in DMSO (control) or a compound for 3 days at 37° C. under 5% C02. A CELLTITER-GLO® reagent (100 μL) was then added to each well. After a 10 min incubation with shaking, luminescence was measured using an ENVISION® multimode plate reader. IC50 values are summarized in Table 1 and percentages of inhibition are summarized in Table 2, where compound T1 is 2-(4-(2-methyl-3,5-diphenylpyrazolo[1,5-a]pyrimidin-7-yl)piperazin-1-yl)ethan-1-ol.

Test [2] concerns SW480 (G12V) cells. Description: Cell viability assay (CELLTITER-GLO), SW480 cells. As to conditions: Homo sapiens, 72 h, 3 days incubation, 2.5% fetal bovine serum, read-out: Inhibition of Cancerous Cells IC50 (μM) SW480 (G12V). Here is the method: as §1
Test [3] has as its system SW48 (wt) cells. Description: Cell viability assay (CELLTITER-GLO), SW48 cells. To be noted: Homo sapiens, 72 h, 3 days incubation, 2.5% fetal bovine serum, read-out: Inhibition of Cancerous Cells IC50 (μM) SW48 (wt). On the procedure:
as §1

For test [4], the system named is H358 (G12C) cells. In words: Cell viability assay (CELLTITER-GLO), H358 cells. To be noted: Homo sapiens, NCI-H358, 72 h, 3 days incubation, 2.5% fetal bovine serum, read-out: Inhibition of Cancerous Cells IC50 (μM) H358 (G12C). Here is the method: as §1
Test [5] has as its system AsPC-1 (G12D) cells. In words: Cell viability assay (CELLTITER-GLO), AsPC-1 cells. To be noted: Homo sapiens, ASPC1, 72 h, 3 days incubation, 2.5% fetal bovine serum, read-out: Inhibition of Cancerous Cells IC50 (μM) AsPC-1 (G12D). Here is the method: as §1

Take `Cc1nn2c(N3CCN(CCO)CC3)cc(-c3cccc(CCCN4CCN(C(=O)CNc5ccc(C6CCC(=O)NC6=O)cc5)CC4)c3)nc2c1-c1ccccc1` (centres unmarked) [Compound B1, 3-(4-((2-(4-(3-(3-(7-(4-(2-Hydroxyethyl)piperazin-1-yl)-2-methyl-3-phenyl-pyrazolo[1,5-a]pyrimidin-5-yl)phenyl)propyl)piperazin-1-yl)-2-oxoethyl)amino)phenyl)-piperidine-2,6-dione]: the IC50 in test [1] came out at 0.74 µM; in test [2] it was 1.2 µM; in test [3] it was 1.1 µM; in test [4] it was 0.94 µM.

Regarding `Cc1nn2c(N3CCN(CCO)CC3)cc(-c3cccc(CCCCCN4CCN(C(=O)CNc5ccc(C6CCC(=O)NC6=O)cc5)CC4)c3)nc2c1-c1ccccc1` (centres unmarked) [Compound B2, 3-(4-((2-(4-(5-(3-(7-(4-(2-hydroxyethyl)piperazin-1-yl)-2-methyl-3-phenylpyrazolo[1,5-a]pyrimidin-5-yl)phenyl)pentyl)piperazin-1-yl)-2-oxoethyl)amino)phenyl)piperidine-2,6-dione], the IC50 was 0.4 µM in test [1], 0.39 µM in test [2], 0.49 µM in test [3] and 0.71 µM in test [4].

On to `Cc1nn2c(N3CCN(CCO)CC3)cc(-c3cccc(CCCN4CCN(C(=O)CNc5cccc(C6CCC(=O)NC6=O)c5)CC4)c3)nc2c1-c1ccccc1` (centres unmarked) [Compound B4, 3-(3-((2-(4-(3-(3-(7-(4-(2-Hydroxyethyl)piperazin-1-yl)-2-methyl-3-phenyl-pyrazolo[1,5-a]pyrimidin-5-yl)phenyl)propyl)piperazin-1-yl)-2-oxoethyl)amino)phenyl)-piperidine-2,6-dione], for which the IC50 in test [1] is 1.1 µM; in test [2], 1.3 µM; in test [3], 1.4 µM; in test [4], 1.1 µM.

Consider `Cc1nn2c(N3CCN(CCO)CC3)cc(-c3ccccc3)nc2c1-c1cccc(CCCCCN2CCN(C(=O)COc3ccc(N4CCC(=O)NC4=O)cc3)CC2)c1` [Compound C7, 1-(4-(2-(4-(5-(3-(7-(4-(2-hydroxyethyl)piperazin-1-yl)-2-methyl-5-phenyl-pyrazolo[1,5-a]pyrimidin-3-yl)phenyl)pentyl)piperazin-1-yl)-2-oxoethoxy)phenyl)dihydro-pyrimidine-2,4(1H,3H)-dione], for which the IC50 in test [1] was determined as 0.73 µM; in test [2] it was 0.45 µM; in test [3], 0.7 µM; in test [5] it was 0.91 µM; in test [4], 1.1 µM.

On to `Cc1nn2c(N3CCN(CCO)CC3)cc(-c3ccccc3)nc2c1-c1cccc(CCCCCCCN2CCN(C(=O)COc3ccc(N4CCC(=O)NC4=O)cc3)CC2)c1` [Compound C8, 1-(4-(2-(4-(7-(3-(7-(4-(2-Hydroxyethyl)piperazin-1-yl)-2-methyl-5-phenyl-pyrazolo[1,5-a]pyrimidin-3-yl)phenyl)heptyl)piperazin-1-yl)-2-oxoethoxy)phenyl)dihydro-pyrimidine-2,4(1H,3H)-dione], for which the IC50 stood at 0.71 µM in test [1]; 0.42 µM in test [2]; 0.66 µM in test [3]; 1.1 µM in test [5]; 1.1 µM in test [4].

In the case of `Cc1nn2c(N3CCN(CCO)CC3)cc(-c3ccccc3)nc2c1-c1cccc(CCCCCCCCCN2CCN(C(=O)COc3ccc(N4CCC(=O)NC4=O)cc3)CC2)c1` [Compound C9, 1-(4-(2-(4-(9-(3-(7-(4-(2-hydroxyethyl)piperazin-1-yl)-2-methyl-5-phenyl-pyrazolo[1,5-a]pyrimidin-3-yl)phenyl)nonyl)piperazin-1-yl)-2-oxoethoxy)phenyl)dihydro-pyrimidine-2,4(1H,3H)-dione], the IC50 was 0.47 µM in test [1]; 0.42 µM in test [2]; 0.48 µM in test [3]; 0.96 µM in test [5]; 1.1 µM in test [4].

As to `Cc1nn2c(N3CCN(CCO)CC3)cc(-c3ccccc3)nc2c1-c1cccc(CCCCCCCN2CCN(C(=O)COc3cccc(N4CCC(=O)NC4=O)c3)CC2)c1` [Compound C11, 1-(3-(2-(4-(7-(3-(7-(4-(2-Hydroxyethyl)piperazin-1-yl)-2-methyl-5-phenyl-pyrazolo[1,5-a]pyrindin-3-yl)phenyl)heptyl)piperazin-1-yl)-2-oxoethoxy)phenyl)dihydro-pyrimidine-2,4(1H,3H)-dione], the IC50 in test [1] came to 0.89 µM; in test [2], 0.53 µM; in test [3], 1.1 µM; in test [5], 1.2 µM; in test [4], 1.2 µM.

For `Cc1nn2c(N3CCN(CCO)CC3)cc(-c3ccccc3)nc2c1-c1cccc(CCCCCCCCCN2CCN(C(=O)COc3cccc(N4CCC(=O)NC4=O)c3)CC2)c1` [Compound C12, 1-(3-(2-(4-(9-(3-(7-(4-(2-hydroxyethyl)piperazin-1-yl)-2-methyl-5-phenyl-pyrazolo[1,5-a]pyrimidin-3-yl)phenyl)nonyl)piperazin-1-yl)-2-oxoethoxy)phenyl)dihydro-pyrimidine-2,4(1H,3H)-dione], the IC50 in test [1] came to 0.63 µM; in test [2] it was 0.45 µM; in test [3], 0.73 µM; in test [5], 1 µM; in test [4], 1.4 µM.

On to `Cc1nn2c(N3CCN(CCO)CC3)cc(-c3cccc(CCCCCN4CCN(C(=O)CNc5ccc6c(C7CCC(=O)NC7=O)nn(C)c6c5)CC4)c3)nc2c1-c1ccccc1` (centres unmarked) [Compound D2, 3-(6-((2-(4-(5-(3-(7-(4-(2-hydroxyethyl)piperazin-1-yl)-2-methyl-3-phenylpyrazolo[1,5-a]pyrimidin-5-yl)phenyl)pentyl)piperazin-1-yl)-2-oxoethyl)amino)-1-methyl-1H-indazol-3-yl)piperidine-2,6-dione], for which the IC50 amounted to 0.32 µM in test [1], 0.45 µM in test [2], 0.52 µM in test [3] and 0.82 µM in test [4].

Take `Cc1nn2c(N3CCN(CCO)CC3)cc(-c3cccc(CCCN4CCN(C(=O)CNc5cccc6c(C7CCC(=O)NC7=O)nn(C)c56)CC4)c3)nc2c1-c1ccccc1` (centres unmarked) [Compound D4, 3-(7-((2-(4-(3-(3-(7-(4-(2-Hydroxyethyl)piperazin-1-yl)-2-methyl-3-phenyl-pyrazolo[1,5-a]pyrimidin-5-yl)phenyl)propyl)piperazin-1-yl)-2-oxoethyl)amino)-1-methyl-1H-indazol-3-yl)piperidine-2,6-dione]: the IC50 in test [1] was found to be 0.52 µM; in test [2], 0.84 µM; in test [3], 0.94 µM; in test [4] it was 0.75 µM.

Consider `Cc1nn2c(N3CCN(CCO)CC3)cc(-c3ccccc3)nc2c1-c1cccc(CCCN2CCN(C(=O)CNc3ccc4c(C5CCC(=O)NC5=O)nn(C)c4c3)CC2)c1` (centres unmarked) [Compound D7, 3-(6-((2-(4-(3-(3-(7-(4-(2-Hydroxyethyl)piperazin-1-yl)-2-methyl-5-phenyl-pyrazolo[1,5-a]pyrimidin-3-yl)phenyl)propyl)piperazin-1-yl)-2-oxoethyl)amino)-1-methyl-1H-indazol-3-yl)piperidine-2,6-dione], for which the IC50 worked out at 1.3 µM in test [1]; 0.86 µM in test [2]; 1.2 µM in test [3]; 1.3 µM in test [5]; 3.3 µM in test [4].
